{"source": "patent US20110223202A1", "about": "“CATIONIC CORE-SHELL PEPTIDE NONOPARTICLES” (priority 2007, published 2011)", "assay_type_in_all_cases": "cell-based", "key": {"Bacillus subtilis": {"tested_on": "Bacillus subtilis", "assay": "microbe, parasite or virus in culture", "conditions": "read-out: MIC against Bacillus subtilis", "description": "Bacillus subtilis, Candida albicans and Stachybotrys chartarum (ATCC) were grown in tryptic soy broth at 37° C., yeast mold broth at 24° C. and tryptic soy broth at 26° C., respectively. The MICs of the peptides or peptide nanoparticles were measured using a broth microdilution method. Briefly, 50 μL of peptide and peptide nanoparticle solutions with a concentration of 7.1 to 142 μM was placed into each well of 96-well plates. 50 μL of microorganism solution was added to each well to give an optical density reading of 0.1 to 0.2 at 600 nm. […] Broth containing cells alone was used as control. The tests were repeated three times."}, "Candida albicans": {"tested_on": "Candida albicans", "conditions": "broth microdilution, no growth observed", "description": "(§1) Bacillus subtilis, Candida albicans and Stachybotrys chartarum (ATCC) were grown in tryptic soy broth at 37° C., yeast mold broth at 24° C. and tryptic soy broth at 26° C., respectively. The MICs of the peptides or peptide nanoparticles were measured using a broth microdilution method. Briefly, 50 μL of peptide and peptide nanoparticle solutions with a concentration of 7.1 to 142 μM was placed into each well of 96-well plates. 50 μL of microorganism solution was added to each well to give an optical density reading of 0.1 to 0.2 at 600 nm. The cell cultures were then incubated for 15, 12/16 and 170 hours for Bacillus subtilis, Candida albicans and Stachybotrys chartarum respectively, and the MIC was taken at the concentration at which no growth was observed. Broth containing cells alone was used as control. The tests were repeated three times."}, "Stachybotrys chartarum": {"tested_on": "Stachybotrys chartarum", "assay": "microbe, parasite or virus in culture", "conditions": "broth microdilution, no growth observed, read-out: MIC against Stachybotrys chartarum", "description": "as §1"}, "rat red blood cells": {"tested_on": "rat red blood cells", "assay": "Hemolysis assay", "conditions": "at concentrations lower than its MIC", "description": "Fresh rat red blood cells were washed with PBS for three times. 100 μL of red blood cells suspended in PBS (4% in volume) was placed in each well of 96-well plates and 100 μL of peptide nanoparticle or amphotericin B solution was added to each well. The plates were incubated for one hour at 37° C. The cell suspensions were taken out and centrifuged at 1000 g for 5 minutes. Aliquots (100 μL) of supernatant were transferred to 96-well plates, and hemoglobin release was monitored at 576 nm using a microplate reader (Bio-Teck Instruments, Inc). Percentage of hemolysis was calculated using the following formula: Hemolysis (%)=[(O.D.576 nm in the nanoparticle solution−O.D.576 nm in PBS)/(O.D.576 nm in 0.1% Triton X-100−O.D.576 nm in PBS)]×100. In vivo studies."}, "[1]": {"conditions": "broth microdilution, no growth observed"}}, "note": "Like-named read-outs stand apart in the source and are kept apart here. No end group written: not given here.", "data": [{"compound": "GGGRRRRRRYGRKKRRQRRR-NH2 [G3R6TAT]", "values": [{"measurement": "MIC", "setting": "Bacillus subtilis; [1]", "result": 75.0, "unit": "µM"}, {"measurement": "MIC against Candida albicans", "setting": "Candida albicans", "result": 75.0, "unit": "µM"}]}, {"compound": "N=C(N)NCCC[C@H](NC(=O)[C@H](CCCNC(=N)N)NC(=O)[C@H](CCCNC(=N)N)NC(=O)[C@H](CCCNC(=N)N)NC(=O)[C@H](CCCNC(=N)N)NC(=O)[C@H](CCCNC(=N)N)NC(=O)[C@H](CCCNC(=N)N)NC(=O)[C@H](CCCNC(=N)N)NC(=O)[C@H](CCCNC(=N)N)NC(=O)[C@H](CCCNC(=N)N)NC(=O)[C@H](CCCNC(=N)N)NC(=O)[C@H](CCCNC(=N)N)NC(=O)CNC(=O)CNC(=O)CN)C(N)=O", "note": "[G3R12]", "values": [{"measurement": "MIC", "setting": "Bacillus subtilis; [1]", "result": 242.0, "unit": "µM"}, {"measurement": "MIC against Candida albicans", "setting": "Candida albicans", "result": 242.0, "unit": "µM"}]}, {"compound": "OC(Cn1cncn1)(Cn1cncn1)c1ccc(F)cc1F", "note": "[fluconazole]", "values": [{"measurement": "MIC", "setting": "Stachybotrys chartarum; Stachybotrys chartarum", "result": "> 817", "unit": "µM"}]}, {"compound": "C[C@@H]1[C@H](O)[C@@H](C)/C=C/C=C/C=C/C=C/C=C/C=C/C=C/[C@H](O[C@@H]2O[C@H](C)[C@@H](O)[C@H](N)[C@@H]2O)C[C@@H]2O[C@](O)(C[C@@H](O)C[C@@H](O)[C@H](O)CC[C@@H](O)C[C@@H](O)CC(=O)O[C@H]1C)C[C@H](O)[C@H]2C(=O)O", "note": "[amphotericin B]", "values": [{"measurement": "hemolysis", "setting": "rat red blood cells", "result": "more than 90%"}, {"measurement": "MIC", "setting": "Stachybotrys chartarum", "result": "> 54.0", "unit": "µM"}]}, {"compound": "GGGRRRRRR-NH2 (C-terminus assumed) [G3R6]", "values": [{"measurement": "MIC", "setting": "Bacillus subtilis; [1]", "result": "> 444.4", "unit": "µM"}, {"measurement": "MIC against Candida albicans", "setting": "Candida albicans", "result": "> 444.4", "unit": "µM"}]}, {"compound": "CC1(C)S[C@@H]2[C@H](NC(=O)Cc3ccccc3)C(=O)N2[C@H]1C(=O)O", "note": "[penicillin G]", "values": [{"measurement": "MIC", "setting": "Bacillus subtilis; FIG. 12, 16 hours of incubation", "result": 1074, "unit": "µM"}]}, {"compound": "N=C(N)NCCC[C@H](NC(=O)[C@H](CCCNC(=N)N)NC(=O)[C@H](CCCNC(=N)N)NC(=O)[C@H](CCC(N)=O)NC(=O)[C@H](CCCNC(=N)N)NC(=O)[C@H](CCCNC(=N)N)NC(=O)[C@H](CCCCN)NC(=O)[C@H](CCCCN)NC(=O)[C@H](CCCNC(=N)N)NC(=O)CNC(=O)[C@H](Cc1ccc(O)cc1)NC(=O)CNC(=O)CNC(=O)CN)C(N)=O", "note": "[G3TAT]", "values": [{"measurement": "MIC", "setting": "Bacillus subtilis; [1]", "result": 290.0, "unit": "µM"}, {"measurement": "MIC against Candida albicans", "setting": "Candida albicans", "result": 289.0, "unit": "µM"}]}, {"compound": "C[C@H]1c2cccc(O)c2C(=O)C2=C(O)[C@]3(O)C(=O)C(C(N)=O)=C(O)[C@@H](N(C)C)[C@@H]3[C@@H](O)[C@@H]21", "note": "[doxycycline]", "values": [{"measurement": "MIC", "setting": "Bacillus subtilis; Bacillus subtilis, FIG. 12, 16 hours of incubation", "result": 13.5, "unit": "µM"}]}]}
